Molecular target: T1, Human complement C1s enzyme (Homo sapiens, UniProt P09871)
T1 construct: purified from human serum, Complement Technology, Inc; purchased Complement Technology, Inc; host or cells: human serum (plasma-derived native protein)
T1 sequence (P09871 438-688 limits assumed): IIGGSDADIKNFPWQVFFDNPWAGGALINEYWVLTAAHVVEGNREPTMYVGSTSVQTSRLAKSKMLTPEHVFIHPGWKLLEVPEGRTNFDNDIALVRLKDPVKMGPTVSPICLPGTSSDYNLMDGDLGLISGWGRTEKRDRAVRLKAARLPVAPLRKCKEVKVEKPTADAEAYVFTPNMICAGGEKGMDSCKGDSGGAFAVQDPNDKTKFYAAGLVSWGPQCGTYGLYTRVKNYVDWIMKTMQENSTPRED
T1 sequence (P09871 16-437 partner limits assumed): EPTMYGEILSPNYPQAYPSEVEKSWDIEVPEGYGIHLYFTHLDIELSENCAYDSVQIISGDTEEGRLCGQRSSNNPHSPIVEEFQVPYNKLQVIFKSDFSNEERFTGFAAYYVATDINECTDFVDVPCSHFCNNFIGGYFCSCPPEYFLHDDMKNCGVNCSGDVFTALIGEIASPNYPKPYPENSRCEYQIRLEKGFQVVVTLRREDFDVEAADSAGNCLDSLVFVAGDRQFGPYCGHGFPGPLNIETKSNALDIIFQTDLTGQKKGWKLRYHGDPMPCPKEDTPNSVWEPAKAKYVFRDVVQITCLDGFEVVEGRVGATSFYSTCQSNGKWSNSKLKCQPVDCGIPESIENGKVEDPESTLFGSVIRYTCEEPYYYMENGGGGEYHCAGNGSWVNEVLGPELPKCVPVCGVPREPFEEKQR
Experiment: Human C1s enzyme assay
Format: biochemical
Details: human complement C1s enzyme 1.16 nM, substrate Z-L-Lys-SBzl, A405; read-out: IC50 (Stars)
Method in brief: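 Thioesterase activity followed colorimetrically (DTNB, A405, 30-s reads) using 100 μM Z-L-Lys-SBzl substrate. Enzyme, human serum-derived C1s at 1.16 nM final, was incubated with test compound for 5 min, room temperature, pH 7.5 Tris buffer with 1 M NaCl. Rate-versus-concentration data fitted by nonlinear regression for IC50.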

IC50	Structure (SMILES)
< 100 nM	C[C@H](Nc1cnc(-c2ccc(S(F)(F)(F)(F)F)cc2)n(CC(=O)NCc2cc3cnccc3[nH]2)c1=O)c1ccc2oc3ccccc3c2c1 [Compound 296, (S)-N-((1H-pyrrolo[3,2-c]pyridin-2-yl)methyl)-2-(5-((1-(dibenzo[b,d]furan-2-yl)ethyl)-amino)-6-oxo-2-(4-(penta-fluoro-lambda6-sulfaneyl)-phenyl)pyrimidin-1(6H)-yl)-acetamide]
< 100 nM	O=C(Cn1c(-c2ccc(S(F)(F)(F)(F)F)cc2)ncc(NCc2ccc3oc4ccccc4c3c2)c1=O)NCc1cc2cnccc2[nH]1 [Compound 297, N-((1H-pyrrolo[3,2-c]pyridin-2-yl)methyl)-2-(5-((dibenzo [b,d]furan-2-ylmethyl)amino)-6-oxo-2-(4-(pentafluoro-lambda6-sulfaneyl)phenyl)pyr-imidin-1(6H)-yl)acetamide]
< 100 nM	O=C(Cn1c(-c2ccc(S(F)(F)(F)(F)F)cc2)ncc(NCc2ccc(-c3ccccc3)cc2)c1=O)NCc1cc2cnccc2[nH]1 [Compound 298, N-((1H-pyrrolo[3,2-c]pyridin-2-yl)methyl)-2-(5-(([1,1′-biphenyl]-4-ylmethyl)amino)-6-oxo-2-(4-(pentafluoro-lambda6-sulfaneyl)phenyl)pyr-imidin-1(6H)-yl)acetamide]
< 100 nM	C[C@H](Nc1nccn(CC(=O)NCc2cc3cnccc3[nH]2)c1=O)c1ccc2oc3ccccc3c2c1 [Compound 299, (S)—N-((1H-pyrrolo[3,2-c]pyridine-2-yl)methyl)-2-(3-((1-(dibenzo[b,d]furan-2-yl)ethyl)amino)-2-oxopyrazin-1(2H)-yl)acetamide]
< 100 nM	C[C@H](Nc1cnc(N2CCn3c(nnc3C(F)(F)F)C2)n(CC(=O)NCc2cc3cnccc3[nH]2)c1=O)c1ccc2oc3ccccc3c2c1 [Compound 300, (S)—N-((1H-pyrrolo[3,2-c]pyridine-2-yl)methyl)-2-(5-((1-(dibenzo[b,d]furan-2-yl)ethyl)amino)-6-oxo-2-(3-(trifluoromethyl)-5,6-dihydro-[1,2,4]triazolo[4,3-a]pyrazin-7(8H)-yl)pyrimidin-1(6H)-yl)acetamide]
< 100 nM	O=C(Cn1c(N2CCn3c(nnc3C(F)(F)F)C2)ncc(NCCCc2ccccc2)c1=O)NCc1cc2cnccc2[nH]1 [Compound 301, N-((1H-pyrrolo[3,2-c]pyridin-2-yl)methyl)-2-(6-oxo-5-((3-phenylpropyl)amino)-2-(3-(trifluoromethyl)-5,6-dihydro-[1,2,4]triazolo[4,3-a]pyrazin-7(8H)-yl)pyrimidin-1(6H)-yl)-acetamide]
< 100 nM	N#Cc1c(NCCCc2ccccc2)ccc(-c2ccccc2)c1CC(=O)NCc1cc2cnccc2[nH]1 [Compound 302, N-((1H-pyrrolo[3,2-c]pyridine-2-yl)methyl)-2-(3-cyano-4-((3-phenylpropyl)amino)-[1,1′-biphenyl]-2-yl)acetamide]
< 100 nM	O=C(Cn1c(-c2ccccc2)ncc(NCC2CCC(c3ccccc3)CC2)c1=O)NCc1cc2cnccc2[nH]1 (stereo not shown) [Compound 303, N-((1H-pyrrolo[3,2-c]pyridine-2-yl)methyl)-2-(6-oxo-2-phenyl-5-(((4-phenylcyclohexyl)methyl)amino)pyrimidin-1(6H)-yl)acetamide]
100 to 1000 nM	C[C@@H]1CN(c2ncc(N[C@H](C)c3ccc4oc5ccccc5c4c3)c(=O)n2CC(=O)NCc2cc3cnccc3[nH]2)CCO1 [Compound 304, N-((1H-pyrrolo[3,2-c]pyridin-2-yl)methyl)-2-(5-(((R)-1-(dibenzo[b,d]furan-2-yl)ethyl)-amino)-2-((R)-2-methylmorph-olino)-6-oxopyrimidin-1(6H)-yl)acetamide]
100 to 1000 nM	C[C@@H]1CN(c2ncc(N[C@H](C)c3ccc4oc5ccccc5c4c3)c(=O)n2CC(=O)NCc2cc3cnccc3[nH]2)C[C@H](C)O1 [Compound 305, N-((1H-pyrrolo[3,2-c]pyridin-2-yl)methyl)-2-(5-(((R)-1-(dibenzo[b,d]furan-2-yl)ethyl)-amino)-2-((2S,6R)-2,6-dimeth-ylmorpholino)-6-oxopyrimidin-1(6H)-yl)acetamide]
< 100 nM	C[C@@H](Nc1cnc(-c2ccccc2)n(CC(=O)NCc2cc3cnccc3[nH]2)c1=O)c1ccc(-c2ccccc2F)cc1 [Compound 307, (R)-N-((1H-pyrrolo[3,2-c]pyridin-2-yl)methyl)-2-(5-((1-(2′-fluoro-[1,1′-biphenyl]-4-yl)ethyl)amino)-6-oxo-2-phen-ylpyrimidin-1(6H)-yl)acet-amide]
< 100 nM	C[C@@H](Nc1cnc(-c2ccccc2F)n(CC(=O)NCc2cc3cnccc3[nH]2)c1=O)c1ccc(-c2ccccc2F)cc1 [Compound 308, (R)—N-((1H-pyrrolo[3,2-c]pyridine-2-yl)methyl)-2-(5-((1-(2′-fluoro-[1,1′-biphenyl]-4-yl)ethyl)amino)-2-(2-fluorophenyl)-6-oxopyrimidin-1(6H)-yl)acetamide]
< 100 nM	C[C@H](Nc1cnc(-c2ccccc2F)n(CC(=O)NCc2cc3cnccc3[nH]2)c1=O)c1ccc2c(c1)oc1ccccc12 [Compound 309, (S)-N-((1H-pyrrolo[3,2-c]pyridin-2-yl)methyl)-2-(5-((1-(dibenzo[b,d]furan-3-yl)ethyl)-amino)-2-(2-fluorophenyl)-6-oxopyrimidin-1(6H)-yl)acet-amide]
100 to 1000 nM	C[C@@H](Nc1cncn(CC(=O)NCc2cc3cnccc3[nH]2)c1=O)c1ccc2oc3ccccc3c2c1 [Compound 310, (R)-N-((1H-pyrrolo[3,2-c]pyridin-2-yl)methyl)-2-(5-((1-(dibenzo[b,d]furan-2-yl)ethyl)-amino)-6-oxopyrimidin-1(6H)-yl)acetamide]
100 to 1000 nM	CC(C)(Nc1cnc(-c2ccccc2F)n(CC(=O)NCc2cc3cnccc3[nH]2)c1=O)c1ccc2oc3ccccc3c2c1 [Compound 311, N-((1H-pyrrolo[3,2-c]pyridine-2-yl)methyl)-2-(5-((2-(dibenzo[b,d]furan-2-yl)propan-2-yl)amino)-2-(2-fluorophenyl)-6-oxopyrimidin-1(6H)-yl)acetamide]
< 100 nM	O=C(Cn1c(-c2cn[nH]c2)ncc(NCc2ccc3oc4ccccc4c3c2)c1=O)NCc1cc2cnccc2[nH]1 [Compound 312, N-((1H-pyrrolo[3,2-c]pyridine-2-yl)methyl)-2-(5-((dibenzo[b,d]furan-2-ylmethyl)amino)-6-oxo-2-(1H-pyrazol-4-yl)pyrimidin-1(6H)-yl)acetamide]
100 to 1000 nM	C[C@@H](Nc1cnc(N2CCn3c(nnc3C(F)(F)F)C2)n(CC(=O)NCc2cc3cnccc3[nH]2)c1=O)c1ccc2oc3ccccc3c2c1 [Compound 313, (R)-N-((1H-pyrrolo[3,2-c]pyridin-2-yl)methyl)-2-(5-((1-(dibenzo[b,d]furan-2-yl)ethyl)-amino)-6-oxo-2-(3-(trifluoro-methyl)-5,6-dihydro-[1,2,4]triazolo[4,3-a]pyrazin-7(8H)-yl)pyrimidin-1(6H)-yl)acet-amide]
< 100 nM	C[C@H](Nc1ncc(-c2ccccc2F)n(CC(=O)NCc2cc3cnccc3[nH]2)c1=O)c1ccc2oc3ccccc3c2c1 [Compound 314, (S)—N-((1H-pyrrolo[3,2-c]pyridine-2-yl)methyl)-2-(3-((1-(dibenzo[b,d]furan-2-yl)ethyl)amino)-6-(2-fluorophenyl)-2-oxopyrazin-1(2H)-yl)acetamide]
< 100 nM	C[C@H](Nc1cnc(-c2ccncc2)n(CC(=O)NCc2cc3cnccc3[nH]2)c1=O)c1ccc2oc3ccccc3c2c1 [Compound 315, (S)-N-((1H-pyrrolo[3,2-c]pyridin-2-yl)methyl)-2-(5-((1-(dibenzo[b,d]furan-2-yl)ethyl)-amino)-6-oxo-2-(pyridin-4-yl)-pyrimidin-1(6H)-yl)acetamide]
< 100 nM	Cc1cnc(N[C@@H](C)c2ccc3oc4ccccc4c3c2)c(=O)n1CC(=O)NCc1cc2cnccc2[nH]1 [Compound 316, (S)-N-((1H-pyrrolo[3,2-c]pyridin-2-yl)methyl)-2-(3-((1-(dibenzo[b,d]furan-2-yl)ethyl)-amino)-6-methyl-2-oxopyrazin-1(2H)-yl)acetamide]
< 100 nM	Nc1cnc(-c2ccccc2)n(CC(=O)NCc2cc3cnccc3[nH]2)c1=O [Compound 317, N-((1H-pyrrolo[3,2-c]pyridin-2-yl)methyl)-2-(5-amino-6-oxo-2-phenylpyrimidin-1(6H)-yl)-acetamide]

Structure (SMILES)	IC50
C[C@@H](Nc1cnc(N2C3CCC2COC3)n(CC(=O)NCc2cc3cnccc3[nH]2)c1=O)c1ccc2oc3ccccc3c2c1 [Compound 306, N-((1H-pyrrolo[3,2-c]pyridin-2-yl)methyl)-2-(2-(3-oxa-8-azabicyclo[3.2.1]octan-8-yl)-5-(((R)-1-(dibenzo[b,d]furan-2-yl)ethyl)amino)-6-oxopyrimi-din-1(6H)-yl)acetamide]	100 to 1000 nM

From US20260184707A1, “PHARMACEUTICAL COMPOUNDS FOR THE TREATMENT OF COMPLEMENT MEDIATED DISORDERS” (ALEXION PHARMACEUTICALS, INC., priority 2022, published 2026)
